Results reported in patent US20060083794A1, “Use of an extract from the plant argania spinosa” (priority 2002, published 2006).

Tested on: 5-α-reductase
Experiment: Metabolization of 14C testosterone to DHT in reconstructed epidermis (thin-layer chromatography, phosphoimager)
Assay type: cell-based, human
Conditions: Finasterid 10 μM; control = 100
Procedure: • Epidermis SkinEthic (17 days, 0.63 cm^2) in culture, 37° C., 5% CO2 • Reference substance: Finasteride • Testosterone: [4-14-C]
The epidermis was precultivated for 24 hours on plates with 24 positions. The experiments with the products and the reference substance Finasterid (10 μm) were carried out three times (3 epidermises per experiment). After treatment for 24 hours, the media of the subepidermis were renewed and replaced by 300 μl of fresh culture medium. 100 μl of radioactively marked testosterone solution were applied to the upper surface (horny layer) of the epidermis (TO). After another 24 hours, the subepidermis medium was removed for analysis.
The steroids present in the culture medium were extracted for analysis of the metabolism and separated into their molecular derivatives by thin-layer chromatography (on silica gel). The quantity of transformed testosterone was determined by radioactive counting of the various spots using a phosphoimager.

## CC(C)(C)NC(=O)[C@H]1CC[C@H]2[C@@H]3CC[C@H]4NC(=O)C=C[C@]4(C)[C@H]3CC[C@]12C [Finasterid, Finasteride]
  DHT formed in %: 8%
